In patent US10858365B2, “Triazolo-pyrimidine compounds and uses thereof” (Dizal (Jiangsu) Pharmaceutical Co., Ltd., priority 2018, dated 2020):

Legend:
Type in all cases: cell-based
hA2a = hA2a (Homo sapiens (Human), UniProt P29274); experiment: cAMP inhibition assay in hA2a/CHO cells; settings: adenosine stimulation, read-out: cAMP & FLIPR IC50 (nM) hA2a
Description: (§1) hA2a/CHO, hA2b/CHO and mA2a/CHO (Genscript) were plated at 5×10^3 cells/well into 384-well polystyrene plates at the day of experiment. Compounds were pre-incubated with cells for 30 min at 37° C., 5% CO2. Then […] adenosine was added to the cells and incubated for 30 min at 37° C., 5% CO2. Detection reagent (CISBIO) was added and the plates were incubated for 60 min at room temperature. The signal was captured by Envision.
FLIPR™ and cAMP inhibition activities of exemplary compounds in different adenosine receptor over-expressing cell lines are shown in Table 4 below.

hA2b = hA2b (Homo sapiens (Human), UniProt P29275); experiment: cAMP inhibition assay in hA2b/CHO cells; settings: adenosine stimulation, read-out: cAMP & FLIPR IC50 (nM) hA2b
Description: as §1

mA2a = mA2a (Mus musculus (Mouse), UniProt Q60613); experiment: cAMP inhibition assay in mA2a/CHO cells; settings: adenosine stimulation, read-out: cAMP & FLIPR IC50 (nM) mA2a
Description: as §1

hA1 = hA1 (Homo sapiens (Human), UniProt P30542); experiment: FLIPR inhibition assay in hADORA1/CHO (hA1 expressing) cells; settings: hADORA1/CHO cells, FLIPR calcium, adenosine stimulation; read-out: cAMP & FLIPR IC50 (nM) hA1
Description: hADORA1/CHO (hA1 expressing) cells (Genscript) were plated at 1×10^4 cells/well into 384-well polystyrene plates one day before starting the experiment. On the day of experiment, the supernatant was discard and replaced with 40 µL of dye (FLIPR calcium 5 Assay Kit) per well and the plates were incubated for 60 mins at 37° C. plus 5% CO2. Then testing compounds were added at different concentrations for FLIPR™ inhibition assay. After a 400 s incubation with compound, […] adenosine was added into the cells, and the signal was captured by FLIPR.

Chain of hA2b (P29275 whole entry): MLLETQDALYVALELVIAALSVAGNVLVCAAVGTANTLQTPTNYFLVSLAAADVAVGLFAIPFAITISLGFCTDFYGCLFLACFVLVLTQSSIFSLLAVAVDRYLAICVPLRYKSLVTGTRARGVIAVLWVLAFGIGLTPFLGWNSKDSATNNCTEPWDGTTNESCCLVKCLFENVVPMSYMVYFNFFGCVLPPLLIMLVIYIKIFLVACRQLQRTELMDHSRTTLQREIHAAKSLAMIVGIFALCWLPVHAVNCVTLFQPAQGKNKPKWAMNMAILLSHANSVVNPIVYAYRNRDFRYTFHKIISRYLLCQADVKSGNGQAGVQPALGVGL
Chain of hA2a (P29274 whole entry): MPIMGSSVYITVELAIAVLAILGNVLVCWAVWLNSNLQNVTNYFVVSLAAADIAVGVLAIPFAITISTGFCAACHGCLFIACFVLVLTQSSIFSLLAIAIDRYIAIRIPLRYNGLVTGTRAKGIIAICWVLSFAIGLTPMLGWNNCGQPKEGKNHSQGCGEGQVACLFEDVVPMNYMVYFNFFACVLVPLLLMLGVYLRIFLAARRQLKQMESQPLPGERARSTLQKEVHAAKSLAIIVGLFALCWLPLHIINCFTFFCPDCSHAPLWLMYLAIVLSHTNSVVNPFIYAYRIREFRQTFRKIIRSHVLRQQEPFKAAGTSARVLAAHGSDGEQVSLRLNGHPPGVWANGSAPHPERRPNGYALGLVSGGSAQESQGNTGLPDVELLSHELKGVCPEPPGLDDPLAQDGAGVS
Chain of mA2a (Q60613 whole entry): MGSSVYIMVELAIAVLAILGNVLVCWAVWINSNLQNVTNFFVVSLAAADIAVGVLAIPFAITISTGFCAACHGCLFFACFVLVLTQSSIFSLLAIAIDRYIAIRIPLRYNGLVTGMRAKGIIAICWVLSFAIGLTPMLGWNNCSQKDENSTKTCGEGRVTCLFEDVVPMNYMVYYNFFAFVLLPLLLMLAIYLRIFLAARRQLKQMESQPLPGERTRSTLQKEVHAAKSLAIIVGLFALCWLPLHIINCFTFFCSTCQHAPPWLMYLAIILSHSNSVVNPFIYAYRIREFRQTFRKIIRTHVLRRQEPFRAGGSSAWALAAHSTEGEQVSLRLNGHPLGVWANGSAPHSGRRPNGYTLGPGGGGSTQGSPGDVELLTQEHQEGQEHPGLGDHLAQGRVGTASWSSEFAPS
Chain of hA1 (P30542 whole entry): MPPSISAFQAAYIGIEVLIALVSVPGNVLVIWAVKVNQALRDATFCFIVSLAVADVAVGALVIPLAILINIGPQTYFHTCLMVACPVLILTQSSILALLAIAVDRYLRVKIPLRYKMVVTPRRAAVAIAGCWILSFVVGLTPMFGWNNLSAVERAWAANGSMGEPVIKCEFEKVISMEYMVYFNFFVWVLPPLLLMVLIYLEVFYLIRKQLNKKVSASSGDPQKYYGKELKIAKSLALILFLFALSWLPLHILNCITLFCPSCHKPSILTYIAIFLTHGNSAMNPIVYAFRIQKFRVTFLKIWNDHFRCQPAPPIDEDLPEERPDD

| Compound | IC50 (hA2a) | IC50 (hA2b) | IC50 (mA2a) | IC50 (hA1) |
| --- | --- | --- | --- | --- |
| Cn1cc(-c2c(-c3ccc4c(ccn4C)c3)nc(N)n3nc(Cc4ncccc4F)nc23)ccc1=O [Example 97, 5-(5-amino-2-((3-fluoropyridin-2-yl)methyl)-7-(1-methyl-1H-indol-5-yl)-[1,2,4]triazolo[1,5-c]pyrimidin-8-yl)-1-methylpyridin-2(1H)-one] | 47 nM | 1720 nM | 120 nM | 19 nM |
| Cc1cnc2ccc(-c3c(-n4ccc(F)n4)nc(N)n4nc(Cc5ncccc5F)nc34)cn12 [Example 116, 7-(3-fluoro-1H-pyrazol-1-yl)-2-((3-fluoropyridin-2-yl)methyl)-8-(3-methylimidazo[l,2-a]pyridin-6-yl)-[l,2,4]triazolo[l,5-c]pyrimidin-5-amine] | 0.2 nM | 12.2 nM | 0.2 nM | 7.9 nM |
| Cc1cnc2ccc(-c3c(-c4ccc(F)cc4)nc(N)n4nc(CCN(C)C)nc34)cn12 [Example 120, 2-(2-(dimethylamino)ethyl)-7-(4-fluorophenyl)-8-(3-methylimidazo[l,2-a]pyridin-6-yl)-[l,2,4]tria zolo[1,5-c]pyrimidin-5-amine] | 0.6 nM | 146 nM | 9.5 nM | 66.7 nM |
| Cc1cnc2ccc(-c3c(N4CCC4)nc(N)n4nc(Cc5c(F)cccc5F)nc34)cn12 [Example 124, 7-(azetidin-l-yl)-2-(2,6-difluorobenzyl)-8-(3-methylimidazo[1,2-a]pyridin-6-yl)-[1,2,4]triazolo [1,5-c]pyrimidin-5-amine] | 0.1 nM | 23.3 nM | 3.9 nM | 16 nM |
| Cc1cnc(-c2nc(N)n3nc(Cc4c(F)cccc4F)nc3c2-c2ccc(=O)n(C)c2)o1 [Example 26, 5-(5-amino-2-(2,6-difluorobenzyl)-7-(5-methyloxazol-2-yl)-[l,2,4]triazolo[l,5-c]pyrimidin-8-yl)-1-methylpyridin-2(1H)-one] | 15 nM | 457 nM | 34 nM | 33 nM |
| Cc1cc(-c2c(-c3ccc(F)cc3)nc(N)n3nc(Cc4cccc(N(C)C)n4)nc23)ccn1 [Example 17, 2-((6-(dimethylamino)pyridin-2-yl)methyl)-7-(4-fluorophenyl)-8-(2-methylpyridin-4-yl)-[1,2,4]triazolo[1,5-f]pyrimidin-5-amine] | 43 nM | 4790 nM | 51 nM | 22 nM |
| Cc1cnc2ccc(-c3c(-n4cc(F)cn4)nc(N)n4nc(Cc5ncccc5F)nc34)cn12 [Example 117, 7-(4-fluoro-1H-pyrazol-1-yl)-2-((3-fluoropyridin-2-yl)methyl)-8-(3-methylimidazo[l,2-a]pyridin-6-yl)-[1,2,4]triazolo[1,5-c]pyrimidin-5-amine] | 0.2 nM | 16.4 nM | 0.5 nM | 9.7 nM |
| Cc1cc(-c2c(-c3ncco3)nc(N)n3nc(Cc4ncccc4F)nc23)cc(OC(F)F)n1 [Example 87] | 27 nM | 5800 nM | 90 nM | 4050 nM |
| Cn1cc(-c2c(-c3cc(F)cc(F)c3)nc(N)n3nc(Cc4ncccc4F)nc23)ccc1=O [Example 76, 5-(5-amino-7-(3,5-difliiorophenyl)-2-((3-fluoropyridin-2-yl)methyl)-[1,2,4]triazolo[1,5-c]pyrimidin-8-yl)-1-methylpyridin-2(1H)-one] | 7.9 nM | 253 nM | 19 nM | 8.8 nM |
| Nc1nc(-c2ccc(F)cc2)c(-c2ccnc(C(F)(F)F)c2)c2nc(Cc3c(F)cccc3F)nn12 [Example 4, 2-[(2,6-difluorophenyl)methyl]-7-(4-fluorophenyl)-8-[2-(trifluoromethyl)pyridin-4-yl]-[1,2,4]triazolo[1,5-c]pyrimidin-5-amine] | 52 nM | 254 nM | 24 nM | 511 nM |
| Cc1cc(-c2c(-c3ncco3)nc(N)n3nc(Cc4c(F)cccc4F)nc23)cc(C2CC2)n1 [Example 84, 8-(2-cyclopropyl-6-methylpyridin-4-yl)-2-(2,6-difluorobenzyl)-7-(oxazol-2-yl)-[1,2,4]triazolo[1,5-c]pyrimidin-5-amine] | 60 nM | 10000 nM | 428 nM | 2720 nM |
| Cn1cc(-c2c(-n3cccn3)nc(N)n3nc(Cc4ncccc4F)nc23)ccc1=O [Example 63, 5-[5-amino-2-[(3-fluoropyridin-2-yl)methyl]-7-(1H-pyrazol-1-yl)-[1,2,4]triazolo[1,5-c]pyrimidin-8-yl]-1-methyl-1,2-dihydropyridin-2-one] | 122 nM | 1560 nM | 125 nM | 250 nM |
| Cn1cnc2ccc(-c3c(-c4ncco4)nc(N)n4nc(Cc5ncccc5F)nc34)cc21 [Example 90, 2-((3-fluoropyridin-2-yl)methyl)-8-(1-methyl-1H-benzo[d]imidazol-6-yl)-7-(oxazol-2-yl)-[1,2,4] triazolo[1,5-c]pyrimidin-5-amine] | 1.8 nM | 48 nM | 3.5 nM | 72 nM |
| Cc1cnc2ccc(-c3c(-c4ncco4)nc(N)n4nc(Cc5ncccc5F)nc34)cn12 [Example 99, 2-((3-fluoropyridin-2-yl)methyl)-8-(3-methylimidazo[l,2-a]pyridin-6-yl)-7-(oxazol-2-yl)-[l,2,4] triazolo[l,5-c]pyrimidin-5-amine] | 0.5 nM | 21 nM | 0.8 nM | 3.5 nM |
| Cc1cnc2ccc(-c3c(-c4ccc(F)cc4)nc(N)n4nc(CC5CCOC5)nc34)cn12 (single isomer, unassigned; isomer 1) [Example 105-1, 7-(4-fluorophenyl)-8-(3-methylimidazo[1,2-a]pyridin-6-yl)-2-((tetrahydrofuran-3-yl)methyl)-[l,2, 4]triazolo[1,5-c]pyrimidin-5-amine(isomer 1)] | 0.1 nM | 47.5 nM | 1 nM | 14 nM |
| Cc1cc(-c2c(-c3ccc(F)cc3)nc(N)n3nc(Cc4cccc(Cl)n4)nc23)ccn1 [Example 15, 2-[(6-chloropyridin-2-yl)methyl]-7-(4-fluorophenyl)-8-(2-methylpyridin-4-yl)-[1,2,4]triazolo[1,5-c]pyrimidin-5-amine] | 46 nM | 582 nM | 88 nM | 27 nM |
| Cc1nccc(-c2c(-c3ccc(F)cc3)nc(N)n3nc(Cc4c(F)cccc4F)nc23)c1C [Example 16, 2-(2,6-difluorobenzyl)-8-(2,3-dimethylpyridin-4-yl)-7-(4-fluorophenyl)-[1,2,4]triazolo[1,5-c] pyrimidin-5-amine] | 174 nM | 125 nM | 758 nM | 205 nM |
| Cc1cc(-c2c(-c3ncco3)nc(N)n3nc(Cc4c(F)cccc4F)nc23)cc(C)n1 [Example 33, 2-[(2,6-difluorophenyl)methyl]-8-(2,6-dimethylpyridin-4-yl)-7-(1,3-oxazol-2-yl)-[1,2,4]triazolo[1,5-c]pyrimidin-5-amine] | 18 nM | 10000 nM | 109 nM | 6940 nM |
